Test results published in ChEMBL document CHEMBL1201862, “PubChem BioAssay data set” (2004).
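Cultured in 96-well plates, cells were exposed to test compound for 48 hours across five concentrations. Here, GI50 denotes the concentration required for 50% inhibition of growth.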 Active and inactive are the calls of the source. No stated cut-off is given here; in the data, active = GI50 up to about 1.1 µM and inactive = higher.

What was measured:
Assay in all cases: growth of human tumour cells (NCI), 48 h
SF-539 = test system: SF-539
SN12C = test system: SN12C
COLO 205 = test system: COLO 205
BT-549 = test system: BT-549
NCI/ADR-RES = test system: NCI/ADR-RES
HCT-116 = test system: HCT-116
MDA-MB-435 = test system: MDA-MB-435
UACC-257 = test system: UACC-257
OVCAR-8 = test system: OVCAR-8
EKVX = test system: EKVX
SK-MEL-2 = test system: SK-MEL-2
T47D = test system: T47D
SW-620 = test system: SW-620
DU-145 = test system: DU-145
SK-OV-3 = test system: SK-OV-3
K562 = test system: K562
M14 = test system: M14
SK-MEL-5 = test system: SK-MEL-5
SR = test system: SR
HCC 2998 = test system: HCC 2998
HL-60 = test system: HL-60
MDA-N = test system: MDA-N
SF-295 = test system: SF-295
SNB-75 = test system: SNB-75
NCI-H460 = test system: NCI-H460
NCI-H522 = test system: NCI-H522
CCRF-CEM = test system: CCRF-CEM
OVCAR-3 = test system: OVCAR-3
ACHN = test system: ACHN
U-251 = test system: U-251
OVCAR-4 = test system: OVCAR-4
NCI-H226 = test system: NCI-H226
SNB-19 = test system: SNB-19
SF-268 = test system: SF-268
UACC-62 = test system: UACC-62
786-0 = test system: 786-0
LOX IMVI = test system: LOX IMVI
HT-29 = test system: HT-29
RPMI-8226 = test system: RPMI-8226
HOP-92 = test system: HOP-92
HOP-62 = test system: HOP-62
RXF 393 = test system: RXF 393
NCI-H23 = test system: NCI-H23
Hs-578T = test system: Hs-578T
CAKI-1 = test system: CAKI-1
MDA-MB-231 = test system: MDA-MB-231
UO-31 = test system: UO-31
MCF7 = test system: MCF7
KM12 = test system: KM12
MOLT-4 = test system: MOLT-4
Malme-3M = test system: Malme-3M
A549 = test system: A549
TK-10 = test system: TK-10
IGROV-1 = test system: IGROV-1
HCT-15 = test system: HCT-15
PC-3 = test system: PC-3
SK-MEL-28 = test system: SK-MEL-28
OVCAR-5 = test system: OVCAR-5
A498 = test system: A498

## Cc1ccc(-c2nc3cc([N+](=O)[O-])ccc3[nH]2)cc1
SF-539
  GI50: > 100 µM (inactive)
SN12C
  GI50: > 100 µM (inactive)
COLO 205
  GI50: 72.9 µM (inactive)
BT-549
  GI50: > 100 µM (inactive)
NCI/ADR-RES
  GI50: 40.8 µM (inactive)
HCT-116
  GI50: 89.9 µM (inactive)
MDA-MB-435
  GI50: > 100 µM (inactive)
UACC-257
  GI50: 80.4 µM (inactive)
OVCAR-8
  GI50: 93.1 µM (inactive)
EKVX
  GI50: 51.6 µM (inactive)
SK-MEL-2
  GI50: > 100 µM (inactive)
T47D
  GI50: 39.6 µM (inactive)
SW-620
  GI50: > 100 µM (inactive)
DU-145
  GI50: 82.8 µM (inactive)
SK-OV-3
  GI50: > 100 µM (inactive)
K562
  GI50: 59.3 µM (inactive)
M14
  GI50: > 100 µM (inactive)
SK-MEL-5
  GI50: 64.7 µM (inactive)
SR
  GI50: 70.8 µM (inactive)
HCC 2998
  GI50: 43.4 µM (inactive)
HL-60
  GI50: 45.3 µM (inactive)
MDA-N
  GI50: > 100 µM (inactive)
SF-295
  GI50: 63 µM (inactive)
SNB-75
  GI50: > 100 µM (inactive)
NCI-H460
  GI50: 42.8 µM (inactive)
NCI-H522
  GI50: 41.7 µM (inactive)
CCRF-CEM
  GI50: 39.6 µM (inactive)
OVCAR-3
  GI50: 67.5 µM (inactive)
ACHN
  GI50: 53 µM (inactive)
U-251
  GI50: > 100 µM (inactive)
OVCAR-4
  GI50: 81.8 µM (inactive)
NCI-H226
  GI50: > 100 µM (inactive)
SNB-19
  GI50: > 100 µM (inactive)
SF-268
  GI50: > 100 µM (inactive)
UACC-62
  GI50: > 100 µM (inactive)
786-0
  GI50: > 100 µM (inactive)
LOX IMVI
  GI50: 80.5 µM (inactive)
HT-29
  GI50: 39.2 µM (inactive)
RPMI-8226
  GI50: 43.1 µM (inactive)
HOP-92
  GI50: > 100 µM (inactive)
HOP-62
  GI50: > 100 µM (inactive)
RXF 393
  GI50: > 100 µM (inactive)
NCI-H23
  GI50: > 100 µM (inactive)
Hs-578T
  GI50: > 100 µM (inactive)
CAKI-1
  GI50: 38 µM (inactive)
MDA-MB-231
  GI50: > 100 µM (inactive)
UO-31
  GI50: 57.8 µM (inactive)
MCF7
  GI50: > 100 µM (inactive)
KM12
  GI50: 54 µM (inactive)
MOLT-4
  GI50: 47.4 µM (inactive)
Malme-3M
  GI50: > 100 µM (inactive)
A549
  GI50: 54.1 µM (inactive)
TK-10
  GI50: > 100 µM (inactive)
IGROV-1
  GI50: > 100 µM (inactive)
HCT-15
  GI50: 52.8 µM
PC-3
  GI50: 38.9 µM (inactive)
SK-MEL-28
  GI50: > 100 µM (inactive)

## Clc1ncnc2c1nc(C#Cc1ccccc1)n2C1CCCCO1 (stereo unspecified)
SF-539
  GI50: 1.91 µM (inactive)
SN12C
  GI50: 1.78 µM (inactive)
COLO 205
  GI50: 1.62 µM (inactive)
BT-549
  GI50: 1.9 µM (inactive)
NCI/ADR-RES
  GI50: 2.75 µM (inactive)
HCT-116
  GI50: 1.82 µM (inactive)
MDA-MB-435
  GI50: 2.35 µM (inactive)
UACC-257
  GI50: 2.61 µM (inactive)
OVCAR-8
  GI50: 3.3 µM (inactive)
EKVX
  GI50: 1.95 µM (inactive)
SK-MEL-2
  GI50: 2.47 µM (inactive)
T47D
  GI50: 1.7 µM (inactive)
SW-620
  GI50: 1.86 µM (inactive)
DU-145
  GI50: 1.47 µM (inactive)
SK-OV-3
  GI50: 7.67 µM (inactive)
OVCAR-5
  GI50: 2.42 µM (inactive)
K562
  GI50: 1.38 µM (inactive)
M14
  GI50: 2.14 µM (inactive)
SK-MEL-5
  GI50: 2.21 µM (inactive)
HCC 2998
  GI50: 2.1 µM (inactive)
HL-60
  GI50: 2.59 µM (inactive)
MDA-N
  GI50: 1.94 µM (inactive)
SF-295
  GI50: 4.47 µM (inactive)
SNB-75
  GI50: 2.6 µM (inactive)
NCI-H460
  GI50: 3.14 µM (inactive)
NCI-H522
  GI50: 1.81 µM (inactive)
CCRF-CEM
  GI50: 2.33 µM (inactive)
OVCAR-3
  GI50: 1.37 µM (inactive)
ACHN
  GI50: 1.69 µM (inactive)
U-251
  GI50: 2.08 µM (inactive)
OVCAR-4
  GI50: 1.87 µM (inactive)
NCI-H226
  GI50: 2.49 µM (inactive)
SNB-19
  GI50: 2.53 µM (inactive)
SF-268
  GI50: 2.32 µM (inactive)
A498
  GI50: 2.63 µM (inactive)
UACC-62
  GI50: 2.42 µM (inactive)
786-0
  GI50: 1.42 µM (inactive)
LOX IMVI
  GI50: 2.02 µM (inactive)
HT-29
  GI50: 1.91 µM (inactive)
HOP-92
  GI50: 1.8 µM (inactive)
HOP-62
  GI50: 2.38 µM (inactive)
RXF 393
  GI50: 1.51 µM (inactive)
NCI-H23
  GI50: 1.99 µM (inactive)
Hs-578T
  GI50: 3.95 µM (inactive)
CAKI-1
  GI50: 1.97 µM (inactive)
MDA-MB-231
  GI50: 3.95 µM (inactive)
UO-31
  GI50: 1.93 µM (inactive)
MCF7
  GI50: 1.37 µM (inactive)
KM12
  GI50: 1.63 µM (inactive)
MOLT-4
  GI50: 2.02 µM (inactive)
Malme-3M
  GI50: 1.95 µM (inactive)
A549
  GI50: 1.99 µM (inactive)
TK-10
  GI50: 2.63 µM (inactive)
HCT-15
  GI50: 1.14 µM
PC-3
  GI50: 3.27 µM (inactive)
SK-MEL-28
  GI50: 2.21 µM (inactive)

## O=C(CCN1CCCC1)Nc1ccc2sc3ccccc3c(=O)c2n1
SF-539
  GI50: 12.6 µM (inactive)
SN12C
  GI50: 10.1 µM (inactive)
COLO 205
  GI50: 11.1 µM (inactive)
BT-549
  GI50: 13.6 µM (inactive)
NCI/ADR-RES
  GI50: 13.3 µM (inactive)
HCT-116
  GI50: 11.5 µM (inactive)
MDA-MB-435
  GI50: 12.7 µM (inactive)
UACC-257
  GI50: 12.2 µM (inactive)
OVCAR-8
  GI50: 11.4 µM (inactive)
EKVX
  GI50: 12.4 µM (inactive)
SK-MEL-2
  GI50: 13.3 µM (inactive)
T47D
  GI50: 19.2 µM (inactive)
SW-620
  GI50: 12.4 µM (inactive)
DU-145
  GI50: 15.4 µM (inactive)
SK-OV-3
  GI50: 7.23 µM (inactive)
OVCAR-5
  GI50: 12.9 µM (inactive)
K562
  GI50: 13.8 µM (inactive)
M14
  GI50: 13.2 µM (inactive)
SK-MEL-5
  GI50: 11.8 µM (inactive)
SR
  GI50: 8.89 µM (inactive)
HCC 2998
  GI50: 12.3 µM (inactive)
HL-60
  GI50: 10.3 µM (inactive)
MDA-N
  GI50: 13.4 µM (inactive)
SF-295
  GI50: 14.8 µM (inactive)
SNB-75
  GI50: 11.8 µM (inactive)
NCI-H460
  GI50: > 10 µM (inactive)
NCI-H522
  GI50: 10.5 µM (inactive)
CCRF-CEM
  GI50: 10.2 µM (inactive)
OVCAR-3
  GI50: 14.5 µM (inactive)
ACHN
  GI50: 11.5 µM (inactive)
U-251
  GI50: 12.9 µM (inactive)
OVCAR-4
  GI50: 13.2 µM (inactive)
NCI-H226
  GI50: 13.8 µM (inactive)
SNB-19
  GI50: 13.1 µM (inactive)
SF-268
  GI50: 17.2 µM (inactive)
A498
  GI50: 17.8 µM (inactive)
UACC-62
  GI50: 12.6 µM (inactive)
786-0
  GI50: 11.7 µM (inactive)
LOX IMVI
  GI50: > 10 µM (inactive)
HT-29
  GI50: 4.35 µM (inactive)
RPMI-8226
  GI50: 12 µM (inactive)
HOP-92
  GI50: 18.1 µM (inactive)
HOP-62
  GI50: 12.3 µM (inactive)
NCI-H23
  GI50: 13.1 µM (inactive)
Hs-578T
  GI50: 11.8 µM (inactive)
CAKI-1
  GI50: 11.5 µM (inactive)
MDA-MB-231
  GI50: 13.3 µM (inactive)
UO-31
  GI50: 11.7 µM (inactive)
MCF7
  GI50: 13 µM (inactive)
KM12
  GI50: 12.8 µM (inactive)
MOLT-4
  GI50: 4.72 µM (inactive)
Malme-3M
  GI50: 13.1 µM (inactive)
A549
  GI50: 12.3 µM (inactive)
TK-10
  GI50: > 10 µM (inactive)
IGROV-1
  GI50: 15.2 µM (inactive)
HCT-15
  GI50: 11.5 µM
PC-3
  GI50: 13.5 µM (inactive)
SK-MEL-28
  GI50: 14.3 µM (inactive)
